Reference: patent publication US20240197695A1, “COMPOUND FOR PREVENTION OR TREATMENT OF KIDNEY DISEASE” (ONCOCROSS CO.,LTD, priority 2021, published 2024)
Marks after values point to notes of the source that are not given here.

How the values were obtained:
[1] = system: diabetic nephrosis animal models; assay: Changes in blood glucose levels (tail vein, blood glucose level meter); assay type: in vivo, mice (C57BL/6)
Experimental: (§1) STZ (Sigma-aldrich, S0130, 40 mg/kg b.w., in 0.1 M citrate buffer pH 4.5) was intraperitoneally administered to 9-week-old male mice (C57BL/6) once/1 day for 5 days to perform a first disease induction. After 7 weeks of the first induction, a second induction was performed using the same method as the first induction. For 5 days of an STZ administration period for the first induction, 10% sucrose was administered as drinking water. In addition, after 14 days of the second administration, blood glucose levels were confirmed to confirm the induction rate, and the induced animals were separated into groups. Experimental substances (R)-4-{(R)-1-[7-(3,4,5-trimethoxy-phenyl)-[1,6] naphthyridin-5-yloxy]-ethyl}pyrrolidin-2-one (BI-1002494) and cromolyn (OC-101) were administered orally into the stomach at 10 mL/kg using an administration syringe (sonde) before 16:00 daily for 12 weeks at a frequency of 7 days/week at doses shown in Table 1 below, and dexamethasone was orally administered as a positive control substance.
Before disease induction, excluding week 9 of administration of experimental substances to mice in each group of Example 1 above, after 2 weeks after the first induction (based on a first administration date), and after 6 weeks and 2 weeks of the second induction (based on the first administration date), blood was collected from the tail vein and blood glucose levels were measured using a blood glucose level meter (Accu-Check, Roche), and fasting was performed for 4 hours from 9:30 a.m. to 1:30.

[2] = system: diabetic nephrosis animal models; assay: Blood indoxyl sulfate by LC MS/MS; assay type: in vivo, mice (C57BL/6); settings: after observation period, fasted
Experimental: as §1
After the observation period for mice of each group in Example 1 was terminated, all surviving animals were fasted in the same manner as when measuring blood glucose levels, and then anesthetized by inhaling isoflurane, and blood was collected from the abdominal vena cava through laparotomy. After the blood collection was completed, the veins and arteries were cut under anesthesia and exsanguinated. The collected blood was left at room temperature for 30 minutes or more and then centrifuged at 3,000 rpm for 20 minutes. Thereafter, glucose, Blood urea nitrogen (BUN), and creatinine were analyzed using an automated blood biochemistry analyzer (Hitachi 3100, Hitachi Co. Ltd., Japan). Indoxyl sulfate (a substance that was mainly produced in the intestines to cause renal injury, and a substance that caused end-stage renal failure by advancing renal function damage in patients with renal failure during hemodialysis) was analyzed using LC MS/MS. In addition, blood insulin was analyzed according to a method represented by a commercial Mouse Insulin ELISA KIT (#AKRIN-011T, Sibayagi Co. Ltd., Japan).

SMILES: COc1cc(-c2cc3ncccc3c(O[C@H](C)[C@H]3CNC(=O)C3)n2)cc(OC)c1OC [BI-1002494, (R)-4-{(R)-1-[7-(3,4,5-trimethoxy-phenyl)-[1,6]naphthyridin-5-yloxy]-ethyl}pyrrolidin-2-one]
- Blood glucose level, Mean ([1]; 12.5 mg/kg/day oral, week 0, 4 h fasting, in mg/dL (unit assumed)): 291.1
- Blood glucose level, Mean ([1]; 12.5 mg/kg/day oral, week 2, 4 h fasting, in mg/dL (unit assumed)): 319.5
- Blood glucose level, Mean ([1]; 12.5 mg/kg/day oral, week 4, 4 h fasting): 225.1^#
- Blood glucose level, Mean ([1]; 12.5 mg/kg/day oral, week 6, 4 h fasting): 261.8^#
- Blood glucose level, Mean ([1]; 12.5 mg/kg/day oral, week 8, 4 h fasting): 270.4^#
- Blood glucose level, Mean ([1]; 12.5 mg/kg/day oral, week 10, 4 h fasting): 280.8^#
- Blood glucose level, Mean ([1]; 25 mg/kg/day oral, week 0, 4 h fasting, in mg/dL (unit assumed)): 301.2
- Blood glucose level, Mean ([1]; 25 mg/kg/day oral, week 2, 4 h fasting, in mg/dL (unit assumed)): 310.1
- Blood glucose level, Mean ([1]; 25 mg/kg/day oral, week 4, 4 h fasting): 218.6^#
- Blood glucose level, Mean ([1]; 25 mg/kg/day oral, week 6, 4 h fasting): 257.8^#
- Blood glucose level, Mean ([1]; 25 mg/kg/day oral, week 8, 4 h fasting): 279.1^#
- Blood glucose level, Mean ([1]; 25 mg/kg/day oral, week 10, 4 h fasting): 255.9^#
- Blood glucose level, Mean ([1]; 50 mg/kg/day oral, week 0, 4 h fasting, in mg/dL (unit assumed)): 303.7
- Blood glucose level, Mean ([1]; 50 mg/kg/day oral, week 2, 4 h fasting, in mg/dL (unit assumed)): 264.5
- Blood glucose level, Mean ([1]; 50 mg/kg/day oral, week 4, 4 h fasting): 201.0^#
- Blood glucose level, Mean ([1]; 50 mg/kg/day oral, week 6, 4 h fasting): 199.6^#
- Blood glucose level, Mean ([1]; 50 mg/kg/day oral, week 8, 4 h fasting): 200.9^#
- Blood glucose level, Mean ([1]; 50 mg/kg/day oral, week 10, 4 h fasting): 187.3^#
- Blood glucose levels compared to those of the positive control group ([1]; administered group (12.5, 25, 50 mg/kg)): decreased significantly
- Blood glucose levels, summary ([1]; after induction of diabetic renal diseases): decreased in a dose-dependent manner
- Indoxyl sulfate, Mean ([2]; 12.5 mg/kg/day oral): 2.2 µg/mL
- Indoxyl sulfate, Mean ([2]; 25 mg/kg/day oral): 2.2 µg/mL
- Indoxyl sulfate, Mean ([2]; 50 mg/kg/day oral): 1.9 µg/mL
